Test results: patent publication US10954246B2, “Compound of EOC315 Mod.I crystal form and preparation method thereof” (Taizhou EOC Pharma Co., Ltd., priority 2017, dated 2021)
Counter-ions that a name gives are not always drawn.

Tests used:
[1] = Thermogravimetric analysis (TGA); type: physicochemical
Method: The DTA curve of a test sample has an endothermic peak at 198.1° C., which is consistent with the DSC result.

[2] = Long-term stability study (25° C., RH 60%); type: physicochemical; conditions: for Related substance Impurity 5 / Related substance Impurity 6 / Related substance Maximum single impurity / Related substance Impurity 1 / Related substance Impurity 2 / Related substance Impurity 3 / Related substance Total impurity / Related substance Impurity 4 / Crystalline form: 25° C./RH 60%; for Related substance Impurity 5 / Related substance Impurity 6: limit 0.10%; for Related substance Maximum single impurity: limit 0.15%; for Related substance Impurity 1 / Related substance Impurity 2 / Related substance Impurity 3: limit 0.17%; for Related substance Total impurity: limit 1.0%; for Related substance Impurity 4: limit 3.0%; for Crystalline form: limit ModI
Method: Long-term stability over twelve months was evaluated at 25° C. and a relative humidity of 60%; or accelerated stability over six months was evaluated at 40° C. and a relative humidity of 75%.

[3] = test system: Colo-205 human CRC xenograft; test: Colo-205 human CRC xenograft model, tumor microvessel histomorphometry (CD31); type: in vivo; conditions: for decrease of MVA: 3 days after the administration
Method: The EOC315 crystalline form Mod. […] Therefore, a study was conducted in a Colo-205 human CRC xenograft model to evaluate whether the anti-tumor activity observed in vivo is consistent with the hypothesis. The microvessel density of a tumor was determined by the quantitative histomorphometry after the endothelial cell marker CD31 was stained. Four hours after the first drug delivery, the declining level of the tumor MVA was further increased compared with each solvent control group (32%; P<0.05). Twenty-four hours after the administration, the declining level of the tumor MVA was further increased (53%; P<0.01).

## CNC(=O)c1cc(OCc2nnc(Nc3ccc(Cl)cc3)c3ccoc23)ccn1 [EOC315 crystalline form Mod. I, 4-(4-chloroanilino)-7-(2-methylaminocarbonyl-4-oxymethyl)pyridylfuro[2,3-d]pyridazine mesylate]
[1]
  degradation temperature: about 241.71 °C
[2]; Month 0, listed as 151211
  Related substance Impurity 5: 0.02%
  Related substance Impurity 6: 0.01%
  Related substance Maximum single impurity: 0.0079%
  Related substance Impurity 3: 0.016%
  Related substance Total impurity: 0.53%
  Related substance Impurity 4: 0.36%
[2]; Month 0, listed as 151212
  Related substance Impurity 5: 0.01%
  Related substance Impurity 6: Undetected
  Related substance Maximum single impurity: 0.012%
  Related substance Impurity 3: 0.011%
  Related substance Total impurity: 0.65%
  Related substance Impurity 4: 0.46%
[2]; Month 0, listed as 151213
  Related substance Impurity 5: Undetected
  Related substance Impurity 6: Undetected
  Related substance Maximum single impurity: 0.0085%
  Related substance Impurity 3: 0.011%
  Related substance Total impurity: 0.52%
  Related substance Impurity 4: 0.35%
[2]; Month 0
  Related substance Impurity 1: Undetected
  Related substance Impurity 2: Undetected
  Crystalline form: ModI
[2]; Month 3
  Related substance Impurity 6: Undetected
  Related substance Maximum single impurity: Undetected
  Related substance Impurity 1: Undetected
  Related substance Impurity 2: Undetected
  Related substance Impurity 3: Undetected
[2]; Month 3, listed as 151211
  Related substance Impurity 5: 0.01%
  Related substance Total impurity: 0.5%
  Related substance Impurity 4: 0.4%
[2]; Month 3, listed as 151212
  Related substance Impurity 5: 0.02%
  Related substance Total impurity: 0.6%
  Related substance Impurity 4: 0.5%
[2]; Month 3, listed as 151213
  Related substance Impurity 5: 0.01%
  Related substance Total impurity: 0.5%
  Related substance Impurity 4: 0.38%
[2]; Month 6
  Related substance Impurity 6: 0.01%
  Related substance Impurity 1: Undetected
  Crystalline form: ModI
[2]; Month 6, listed as 151211
  Related substance Impurity 5: Undetected
  Related substance Maximum single impurity: 0.013%
  Related substance Impurity 2: 0.0028%
  Related substance Impurity 3: 0.099%
  Related substance Total impurity: 0.73%
  Related substance Impurity 4: 0.42%
[2]; Month 6, listed as 151212
  Related substance Impurity 5: 0.02%
  Related substance Maximum single impurity: 0.070%
  Related substance Impurity 2: Undetected
  Related substance Impurity 3: 0.031%
  Related substance Total impurity: 0.88%
  Related substance Impurity 4: 0.54%
[2]; Month 6, listed as 151213
  Related substance Impurity 5: Undetected
  Related substance Maximum single impurity: 0.016%
  Related substance Impurity 2: Undetected
  Related substance Impurity 3: 0.033%
  Related substance Total impurity: 0.63%
  Related substance Impurity 4: 0.40%
[2]; Month 9, listed as 151211
  Related substance Impurity 5: 0.02%
  Related substance Impurity 6: Undetected
  Related substance Maximum single impurity: 0.013%
  Related substance Total impurity: 0.61%
  Related substance Impurity 4: 0.43%
[2]; Month 9, listed as 151212
  Related substance Impurity 5: 0.01%
  Related substance Impurity 6: 0.01%
  Related substance Maximum single impurity: Undetected
  Related substance Total impurity: 0.77%
  Related substance Impurity 4: 0.56%
[2]; Month 9, listed as 151213
  Related substance Impurity 5: Undetected
  Related substance Impurity 6: Undetected
  Related substance Maximum single impurity: Undetected
  Related substance Total impurity: 0.58%
  Related substance Impurity 4: 0.42%
[2]; Month 9
  Related substance Impurity 1: Undetected
  Related substance Impurity 2: Undetected
  Related substance Impurity 3: Undetected
[2]; Month 12, listed as 151211
  Related substance Impurity 5: 0.01%
  Related substance Impurity 6: 0.03%
  Related substance Total impurity: 0.63%
  Related substance Impurity 4: 0.46%
[2]; Month 12, listed as 151212
  Related substance Impurity 5: Undetected
  Related substance Impurity 6: 0.02%
  Related substance Total impurity: 0.80%
  Related substance Impurity 4: 0.58%
[2]; Month 12, listed as 151213
  Related substance Impurity 5: 0.01%
  Related substance Impurity 6: Undetected
  Related substance Total impurity: 0.58%
  Related substance Impurity 4: 0.42%
[2]; Month 12
  Related substance Maximum single impurity: Undetected
  Related substance Impurity 1: Undetected
  Related substance Impurity 2: Undetected
  Related substance Impurity 3: Undetected
  Crystalline form: ModI
[2]; long-term and accelerated stability
  stability of the crystalline form (conclusion from tables 4 and 5): thermodynamically stable form
[3]; at 4 hours
  decrease of MVA: 64%
[3]; at 6 hours
  decrease of MVA: 68%
[3]; conclusion from the xenograft results
  growth of tumor cells: significantly suppressed
[3]; four hours after the first drug delivery, P<0.05
  decline of tumor MVA vs solvent control: 32%
[3]; twenty-four hours after the administration, P<0.01
  decline of tumor MVA vs solvent control: 53%
